In US20250250232A1, “AZETIDINE DERIVATIVES AND USE THEREOF AS DIPEPTIDYL PEPTIDASE 1 INHIBITORS” (CHIESI FARMACEUTICI S.P.A., priority 2022, published 2025):
Values joined by “and” are separate entries in the source; they are usually repeats but may differ in a detail not shown here. Equal values may be shown once. Read-outs that look alike come from different tables or passages of the source.

Molecular target: human DPP1 enzyme (Homo sapiens (Human), UniProt P53634)
Assay: Activity on human recombinant DPP1 isolated enzyme assay (H-Gly-Arg-AMC cleavage, fluorescence)
Format: biochemical
Procedure: Human DPP1 enzyme activity was determined by measuring release of the fluorophore aminomethyl coumarin (AMC) following enzymatic cleavage of the dipeptide substrate H-Gly-Arg-AMC. Assays were performed in black 384 well plates in 25 mM piperazine buffer, pH 5.0, containing 50 mM NaCl, 0.01% (v/v) Triton X100, 5 mM DTT with 0.35 nM human DPP1 enzyme, 300 μM H-Gly-Arg-AMC substrate (˜Km concentration) and test compounds at 0.51-10000 nM concentration range. Human DPP1 was pre-incubated with test compounds for 30 minutes at 25° C. prior to substrate incubation for a further 40 minutes at 25° C. Enzyme activity was determined by measuring fluorescence of the AMC product at excitation and emission wavelengths of 380 nm and 460 nm using a BMG LABTECH PHERA star plate reader. Test compound potencies are reported in Table 15 as pIC50 values generated from 4-parameter sigmoidal curve fitting of the measured concentration-inhibition responses.

[1] = 0.35 nM human DPP1, 300 μM H-Gly-Arg-AMC, 30 min pre-incubation at 25° C., pH 5.0, read-out: h DPP1 pIC50 (converted)
[2] = 0.35 nM human DPP1, 300 μM H-Gly-Arg-AMC, 30 min pre-incubation at 25° C., pH 5.0

human DPP1 enzyme, sequence (P53634 231-394): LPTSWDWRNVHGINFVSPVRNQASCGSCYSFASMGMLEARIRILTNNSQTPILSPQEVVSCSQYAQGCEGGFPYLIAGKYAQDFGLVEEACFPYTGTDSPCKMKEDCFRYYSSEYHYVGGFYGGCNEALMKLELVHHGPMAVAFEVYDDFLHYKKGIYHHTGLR
human DPP1 enzyme, sequence (P53634 25-134): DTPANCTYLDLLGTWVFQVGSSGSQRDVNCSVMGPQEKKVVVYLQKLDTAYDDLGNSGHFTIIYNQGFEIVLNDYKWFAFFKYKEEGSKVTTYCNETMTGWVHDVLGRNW
human DPP1 enzyme, sequence (P53634 395-463): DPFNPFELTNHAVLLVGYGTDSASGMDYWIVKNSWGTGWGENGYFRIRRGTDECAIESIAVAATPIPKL

IC50 [1] | SMILES | further results
1000 to 10000 nM | N#Cc1ccc(-c2ccc(C[C@@H](C#N)NC(=O)C3(Oc4ccccc4)CNC3)cc2)cc1 [Example 21, (S)-N-(1-cyano-2-(4′-cyano-[1,1′-biphenyl]-4-yl)ethyl)-3-phenoxyazetidine-3-carboxamide] | –
1000 to 10000 nM | CCCN1CC(OC)(C(=O)N[C@H](C#N)Cc2ccc(-c3ccc(C#N)cc3)cc2)C1 [Example 46, (S)-N-(1-cyano-2-(4′-cyano-[1,1′-biphenyl]-4-yl)ethyl)-3-methoxy-1-propylazetidine-3-carboxamide] | –
– | COC1(C(=O)N[C@H](C#N)Cc2ccc(-c3ccc4c(c3)C3(CCN(C5COC5)CC3)OC4)cc2F)CN(C)C1 [Example 47, (S)-N-(1-cyano-2-(2-fluoro-4-(1′-(oxetan-3-yl)-3H-spiro[isobenzofuran-1,4′-piperidin]-6-yl)phenyl)ethyl)-3-methoxy-1-methylazetidine-3-carboxamide] | h DPP1 pIC50 [2]: ++++ (h DPP1 pIC50 higher than 8)
1000 to 10000 nM | COC1(C(=O)N[C@H](C#N)Cc2ccc(-c3ccc(C#N)cc3)cc2)CN(C(C)C)C1 [Example 30, (S)-N-(1-cyano-2-(4′-cyano-[1,1′-biphenyl]-4-yl)ethyl)-1-isopropyl-3-methoxyazetidine-3-carboxamide] | –
100 to 1000 nM | CCC1(C(=O)N[C@H](C#N)Cc2ccc(-c3ccc(C#N)cc3)cc2)CNC1 [Example 5, (S)-N-(1-cyano-2-(4′-cyano-[1,1′-biphenyl]-4-yl)ethyl)-3-ethylazetidine-3-carboxamide] | –
1000 to 10000 nM | COCC1(C(=O)N[C@H](C#N)Cc2ccc(-c3ccc(C#N)cc3)cc2)CNC1 [Example 10, (S)-N-(1-cyano-2-(4′-cyano-[1,1′-biphenyl]-4-yl)ethyl)-3-(methoxymethyl)azetidine-3-carboxamide] | –
– | COC1(C(=O)N[C@H](C#N)Cc2ccc(-c3ccc4oc(=O)n(C)c4c3)cc2F)CNC1 [Example 36, (S)-N-(1-cyano-2-(2-fluoro-4-(3-methyl-2-oxo-2,3-dihydrobenzo[d]oxazol-5-yl)phenyl)ethyl)-3-methoxyazetidine-3-carboxamide] | h DPP1 pIC50 [2]: ++++ (h DPP1 pIC50 higher than 8)
1000 to 10000 nM | CC1NCC1C(=O)N[C@H](C#N)Cc1ccc(-c2ccc(C#N)cc2)cc1 (stereo partly drawn) [Example 3, N-((S)-1-cyano-2-(4′-cyano-[1,1′-biphenyl]-4-yl)ethyl)-2-methylazetidine-3-carboxamide] | –
10 to 100 nM | N#Cc1ccc(-c2ccc(C[C@@H](C#N)NC(=O)C3(C(F)F)CNC3)c(F)c2)cc1 [Example 13, (S)-N-(1-cyano-2-(4′-cyano-3-fluoro-[1,1′-biphenyl]-4-yl)ethyl)-3-(difluoromethyl)azetidine-3-carboxamide] | –
1000 to 10000 nM and 100 to 1000 nM | N#Cc1ccc(-c2ccc(C[C@@H](C#N)NC(=O)C3CNC3)cc2)cc1 [Example 9, (S)-N-(1-cyano-2-(4′-cyano-[1,1′-biphenyl]-4-yl)ethyl)azetidine-3-carboxamide] | IC50 (human recombinant DPP1 isolated enzyme assay, read-out: pIC50 on DPP1 (converted)): 1000 to 10000 nM
– | COC1(C(=O)N[C@H](C#N)Cc2ccc(-c3ccc(C#N)cc3)cc2)CN(C)C1 [Example 24, (S)-N-(1-cyano-2-(4′-cyano-[1,1′-biphenyl]-4-yl)ethyl)-3-methoxy-1-methylazetidine-3-carboxamide] | h DPP1 pIC50 [2]: ++++ (h DPP1 pIC50 higher than 8)
10 to 100 nM | COC1(C(=O)N[C@H](C#N)Cc2ccc(-c3ccc(C#N)cc3)cc2F)CNC1 [Example 12, (S)-N-(1-cyano-2-(4′-cyano-3-fluoro-[1,1′-biphenyl]-4-yl)ethyl)-3-methoxyazetidine-3-carboxamide] | –
10 to 100 nM | N#Cc1ccc(-c2ccc(C[C@@H](C#N)NC(=O)C3(C(F)(F)F)CNC3)cc2)cc1 [Example 17, (S)-N-(1-cyano-2-(4′-cyano-[1,1′-biphenyl]-4-yl)ethyl)-3-(trifluoromethyl)azetidine-3-carboxamide] | –
– | CN1C(=O)Cc2ccc(-c3ccc(C[C@@H](C#N)NC(=O)C4(CF)CNC4)c(F)c3)cc21 [Example 48, (S)-N-(1-cyano-2-(2-fluoro-4-(1-methyl-2-oxoindolin-6-yl)phenyl)ethyl)-3-(fluoromethyl)azetidine-3-carboxamide] | h DPP1 pIC50 [2]: ++++ (h DPP1 pIC50 higher than 8)
1000 to 10000 nM | N#Cc1ccc(-c2ccc(C[C@@H](C#N)NC(=O)C3(Cc4ccccc4)CNC3)cc2)cc1 [Example 20, (S)-3-benzyl-N-(1-cyano-2-(4′-cyano-[1,1′-biphenyl]-4-yl)ethyl)azetidine-3-carboxamide] | –
1000 to 10000 nM | COC1(C(=O)NC(C#N)Cc2ncc(-c3ccc(C#N)cc3)cc2F)CN(C)C1 (single isomer, unassigned; enantiomer 2) [Example 45, Enantiomer 2 of N-(1-cyano-2-(5-(4-cyanophenyl)-3-fluoropyridin-2-yl)ethyl)-3-methoxy-1-methylazetidine-3-carboxamide] | –
10 to 100 nM | N#Cc1ccc(-c2ccc(C[C@@H](C#N)NC(=O)C3(C(F)F)CNC3)cc2)cc1 [Example 7, (S)-N-(1-cyano-2-(4′-cyano-[1,1′-biphenyl]-4-yl)ethyl)-3-(difluoromethyl)azetidine-3-carboxamide] | –
10 to 100 nM | COC1(C(=O)N[C@H](C#N)Cc2ccc(-c3ccc(C#N)cc3)cc2)CNC1 [Example 6, (S)-N-(1-cyano-2-(4′-cyano-[1,1′-biphenyl]-4-yl)ethyl)-3-methoxyazetidine-3-carboxamide] | –
100 to 1000 nM | CN1CC(C(=O)N[C@H](C#N)Cc2ccc(-c3ccc(C#N)cc3)cc2)(C(F)F)C1 [Example 35, (S)-N-(1-cyano-2-(4′-cyano-[1,1′-biphenyl]-4-yl)ethyl)-3-(difluoromethyl)-1-methylazetidine-3-carboxamide] | –
– | COC1(C(=O)N[C@H](C#N)Cc2ccc(-c3ccc4oc(=O)n(C)c4c3)cc2F)CN(C)C1 [Example 37, (S)-N-(1-cyano-2-(2-fluoro-4-(3-methyl-2-oxo-2,3-dihydrobenzo[d]oxazol-5-yl)phenyl)ethyl)-3-methoxy-1-methylazetidine-3-carboxamide] | h DPP1 pIC50 [2]: ++++ (h DPP1 pIC50 higher than 8)
10 to 100 nM | Cn1c(=O)oc2ccc(-c3ccc(C[C@@H](C#N)NC(=O)C4(C(F)F)CNC4)cc3)cc21 [Example 14, (S)-N-(1-cyano-2-(4-(3-methyl-2-oxo-2,3-dihydrobenzo[d]oxazol-5-yl)phenyl)ethyl)-3-(difluoromethyl)azetidine-3-carboxamide] | –
– | N#C[C@H](Cc1ccc(-c2ccc3c(c2)C2(CCN(C4COC4)CC2)OC3)cc1F)NC(=O)C1(C(F)F)CNC1 [Example 15, (S)-N-(1-cyano-2-(2-fluoro-4-(1′-(oxetan-3-yl)-3H-spiro[isobenzofuran-1,4′-piperidin]-6-yl)phenyl)ethyl)-3-(difluoromethyl)azetidine-3-carboxamide] | h DPP1 pIC50 [2]: ++++ (h DPP1 pIC50 higher than 8)
100 to 1000 nM | CCN1CC(OC)(C(=O)N[C@H](C#N)Cc2ccc(-c3ccc(C#N)cc3)cc2)C1 [Example 52, (S)-N-(1-cyano-2-(4′-cyano-[1,1′-biphenyl]-4-yl)ethyl)-1-ethyl-3-methoxyazetidine-3-carboxamide] | –
100 to 1000 nM | COC1(C(=O)N[C@H](C#N)Cc2ccc(-c3ccc(C#N)cc3)cc2)CN(C2COC2)C1 [Example 29, (S)-N-(1-cyano-2-(4′-cyano-[1,1′-biphenyl]-4-yl)ethyl)-3-methoxy-1-(oxetan-3-yl)azetidine-3-carboxamide] | –
1000 to 10000 nM | COC1(C(=O)N[C@H](C#N)Cc2ccc(-c3ccc(C#N)cc3)cc2)CN(CC(C)C)C1 [Example 51, (S)-N-(1-cyano-2-(4′-cyano-[1,1′-biphenyl]-4-yl)ethyl)-1-isobutyl-3-methoxyazetidine-3-carboxamide] | –
– | COC1(C(=O)N[C@H](C#N)Cc2ccc(-c3ccc4c(c3)N(C)C(=O)C4)cc2F)CN(C)C1 [Example 50, (S)-N-(1-cyano-2-(2-fluoro-4-(1-methyl-2-oxoindolin-6-yl)phenyl)ethyl)-3-methoxy-1-methylazetidine-3-carboxamide] | h DPP1 pIC50 [2]: ++++ (h DPP1 pIC50 higher than 8)
10 to 100 nM | CSC1(C(=O)N[C@H](C#N)Cc2ccc(-c3ccc(C#N)cc3)cc2)CNC1 [Example 18, (S)-N-(1-cyano-2-(4′-cyano-[1,1′-biphenyl]-4-yl)ethyl)-3-(methylthio)azetidine-3-carboxamide] | –
10 to 100 nM | CN1CC(C(=O)N[C@H](C#N)Cc2ccc(-c3ccc(C#N)cc3)cc2F)(C(F)F)C1 [Example 40, (S)-N-(1-cyano-2-(4′-cyano-3-fluoro-[1,1′-biphenyl]-4-yl)ethyl)-3-(difluoromethyl)-1-methylazetidine-3-carboxamide] | –
– | COC1(C(=O)N[C@H](C#N)Cc2ccc(-c3ccc4c(c3)N(C)C(=O)C4)cc2F)CNC1 [Example 49, (S)-N-(1-cyano-2-(2-fluoro-4-(1-methyl-2-oxoindolin-6-yl)phenyl)ethyl)-3-methoxyazetidine-3-carboxamide] | h DPP1 pIC50 [2]: ++++ (h DPP1 pIC50 higher than 8)

SMILES | IC50 [1] | further results
CN1CC(C(=O)N[C@H](C#N)Cc2ccc(-c3ccc4c(c3)C3(CCN(C5COC5)CC3)OC4)cc2F)(C(F)F)C1 [Example 39, (S)-N-(1-cyano-2-(2-fluoro-4-(1′-(oxetan-3-yl)-3H-spiro[isobenzofuran-1,4′-piperidin]-6-yl)phenyl)ethyl)-3-(difluoromethyl)-1-methylazetidine-3-carboxamide] | 10 to 100 nM | –
